Test results as given in US4640922A, “3N-substituted 3,4-dihydropyrimidines as agents for treating disorders of cardiovascular system” (Suntory Limited, priority 1984, dated 1987).
Like-named read-outs stand apart in the source and are kept apart here.

What was measured:
[1] = test system: coronary artery (isolated heart); test: Coronary vascular dilative effect, isolated perfused guinea pig heart, Langendorff's method (perfusion pressure); settings: for Pharmacological data ED50: 0.1 ml injected into coronary artery, isolated guinea pig heart, 37° C., 6 ml/minute; for coronary vascular dilative effects (in words): Langendorff's method, guinea pig heart
Method: The coronary vascular dilative effect of 3N-substituted 3,4-dihydropryrimidine derivatives was tested.
Heartly guinea pigs (weight 400-500 g) were clubbed dead and their hearts were immediately isolated. The hearts were perfused with Krebs-Henseleit solution bubbled with a mixture of 95% O2 +5% CO2 and maintained at 37° C. at a certain rate of 6 ml/minute according to Langendorff's method [J. Pharmacol. Methods 2, 143 (1979)]. The perfusion pressure was determined by a pressure transducer. Samples were prepared by dissolving 1 mg of a test compound in 1 ml of a mixture of dimethylsulfoxide and physiological saline (1:9) and diluting with physiological saline the solution to the predetermined concentration. 0.1 ml of the diluted solution was administered into the coronary artery via a rubber tube connected to an aorta cannula to obtain ED50 (μg/heart) data as shown in Table 1. The numbers of the compounds in the Table correspond respectively to those of the working examples described above.

vertebral artery = test: Blood flow and blood vessel resistance of vertebral artery in anesthetized dogs; assay type: in vivo, dog; settings: Canis lupus familiaris, iv
Method: (§1) The pharmacological effects of the compounds of the present invention with respect to the blood flow and blood vessel resistance of vertebral artery and systemic blood pressure (average pressure) in anesthetized dogs. […] The first and second ribs were cut open to expose the left vertebral artery. A probe was attached to the origin of the artery and the blood flow was measured with an electromagnetic rheometer (Model MF-27, product of Nihon Koden K.K.) At the same time, continuous measurement of the following parameters was made: systemic blood pressure (average pressure) at the right femoral artery, the ECG in the second induction period, the heart beat with a tachometer driven by the R wave, and the blood vessel resistance determined by loading a multiplication/division unit (EO-601 G, product of Nihon Koden K.K.) with the average values of blood pressure and blood flow in the vertebral artery. All of these parameters were recorded simultaneously on a polygraph (RM-600, product of Nihon Koden, K.K.) All of the test compounds were injected through a cannula inserted into the femoral […].

systemic blood pressure = test: Systemic blood pressure (average pressure) in anesthetized dogs; assay type: in vivo, dog; settings: Canis lupus familiaris, iv, read-out: Average blood pressure, percentage compared with control
Method: as §1

[2] = 0.0003 mg/kg, % of value before administration, average ± standard error, read-out: Vertebral artery vessel resistance, percentage compared with control
[3] = 0.001 mg/kg, % of value before administration, average ± standard error, read-out: Vertebral artery blood flow, percentage compared with control
[4] = 0.001 mg/kg, % of value before administration, average ± standard error, read-out: Vertebral artery vessel resistance, percentage compared with control
[5] = % of value before administration, average ± standard error, read-out: Vertebral artery blood flow, percentage compared with control
[6] = % of value before administration, average ± standard error, read-out: Vertebral artery vessel resistance, percentage compared with control
[7] = 0.1 mg/kg, % of value before administration, average ± standard error, read-out: Vertebral artery blood flow, percentage compared with control
[8] = 0.1 mg/kg, % of value before administration, average ± standard error, read-out: Vertebral artery vessel resistance, percentage compared with control
[9] = 0.001 mg/kg, % of value before administration, average ± standard error
[10] = % of value before administration, average ± standard error
[11] = 0.1 mg/kg, % of value before administration, average ± standard error
[12] = read-out: Vertebral artery blood flow, percentage compared with control
[13] = read-out: Vertebral artery vessel resistance, percentage compared with control

## CCOC(=O)C1=C(C)N=C(C)N(C(=O)OCC)C1c1ccccc1[N+](=O)[O-] (centres unmarked) [Compound 1, 2,6-Dimethyl-5-ethoxycarbonyl-3-N-ethoxycarbonyl-4-(2'-nitrophenyl)-3,4-dihydropyrimidine]
[1]
  Pharmacological data ED50: 0.055 μg/heart
  coronary vascular dilative effects (in words): extremely strong coronary vascular dilative effects
Vertebral artery; 0.0003 mg/kg, % of value before administration, average ± standard error, read-out: Vertebral artery blood flow, percentage compared with control
  response vs control in vivo at 0.0003 mg/kg: 107 ± 4%
Vertebral artery; [2]
  response vs control in vivo at 0.0003 mg/kg: 93 ± 5%
Vertebral artery; [3]
  response vs control in vivo at 0.001 mg/kg: 115 ± 9%
Vertebral artery; [4]
  response vs control in vivo at 0.001 mg/kg: 89 ± 4%
Vertebral artery; [5]
  response vs control in vivo at 0.003 mg/kg: 136 ± 6%
  response vs control in vivo at 0.01 mg/kg: 172 ± 20%
  response vs control in vivo at 0.03 mg/kg: 184 ± 26%
Vertebral artery; [6]
  response vs control in vivo at 0.003 mg/kg: 72 ± 5%
  response vs control in vivo at 0.01 mg/kg: 55 ± 3%
  response vs control in vivo at 0.03 mg/kg: 50 ± 6%
Vertebral artery; [7]
  response vs control in vivo at 0.1 mg/kg: 234%
Vertebral artery; [8]
  response vs control in vivo at 0.1 mg/kg: 41%
Systemic blood pressure; 0.0003 mg/kg, % of value before administration, average ± standard error
  response vs control in vivo at 0.0003 mg/kg: 94 ± 3%
Systemic blood pressure; [9]
  response vs control in vivo at 0.001 mg/kg: 90 ± 1%
Systemic blood pressure; [10]
  response vs control in vivo at 0.003 mg/kg: 88 ± 1%
  response vs control in vivo at 0.01 mg/kg: 79 ± 3%
  response vs control in vivo at 0.03 mg/kg: 74 ± 4%
Systemic blood pressure; [11]
  response vs control in vivo at 0.1 mg/kg: 75%

## CCOC(=O)C1=C(Cl)N=C(C)N(C(=O)OC)C1c1cccc([N+](=O)[O-])c1 (centres unmarked) [Compound 2, 6-Chloro-5-ethoxycarbonyl-3-N-methoxycarbonyl-2-methyl-4-(3'-nitrophenyl)-3,4-dihydropyrimidine]
[1]
  Pharmacological data ED50: 0.98 μg/heart

## CCOC(=O)C1=C(C)N=C(C)N(C(=O)OC)C1c1cccc([N+](=O)[O-])c1 (centres unmarked) [Compound 3, 2,6-Dimethyl-5-ethoxycarbonyl-3-N-methoxycarbonyl-4-(3'-nitrophenyl)-3,4-dihydropyrimidine]
[1]
  Pharmacological data ED50: 1.45 μg/heart

## CCOC(=O)C1=C(Cl)N=C(C)N(C(=O)OCC)C1c1ccccc1[N+](=O)[O-] (centres unmarked) [Compound 4]
[1]
  Pharmacological data ED50: 0.25 μg/heart
Vertebral artery; [3]
  response vs control in vivo at 0.001 mg/kg: 107 ± 4%
Vertebral artery; [4]
  response vs control in vivo at 0.001 mg/kg: 91 ± 5%
Vertebral artery; [5]
  response vs control in vivo at 0.003 mg/kg: 113 ± 6%
  response vs control in vivo at 0.01 mg/kg: 143 ± 12%
  response vs control in vivo at 0.03 mg/kg: 147 ± 16%
Vertebral artery; [6]
  response vs control in vivo at 0.003 mg/kg: 86 ± 7%
  response vs control in vivo at 0.01 mg/kg: 66 ± 4%
  response vs control in vivo at 0.03 mg/kg: 61 ± 5%
Vertebral artery; [7]
  response vs control in vivo at 0.1 mg/kg: 182 ± 16%
Vertebral artery; [8]
  response vs control in vivo at 0.1 mg/kg: 51 ± 3%
Systemic blood pressure; [9]
  response vs control in vivo at 0.001 mg/kg: 95 ± 1%
Systemic blood pressure; [10]
  response vs control in vivo at 0.003 mg/kg: 93 ± 1%
  response vs control in vivo at 0.01 mg/kg: 91 ± 2%
  response vs control in vivo at 0.03 mg/kg: 88 ± 1%
Systemic blood pressure; [11]
  response vs control in vivo at 0.1 mg/kg: 84 ± 2%

## CCOC(=O)C1=C(C)N=C(C)N(C(=O)OC)C1c1ccccc1[N+](=O)[O-] (centres unmarked) [Compound 5]
[1]
  Pharmacological data ED50: 0.066 μg/heart
  coronary vascular dilative effects (in words): extremely strong coronary vascular dilative effects

## CCOC(=O)C1=C(Cl)N=C(C)N(C(=O)OC)C1c1ccccc1[N+](=O)[O-] (centres unmarked) [Compound 6]
[1]
  Pharmacological data ED50: 0.70 μg/heart

## CCOC(=O)N1C(C)=NC(C)=C(C(=O)OC)C1c1ccccc1[N+](=O)[O-] (centres unmarked) [Compound 7]
[1]
  Pharmacological data ED50: 0.40 μg/heart

## CCOC(=O)C1=C(C)N=C(C)N(C(=O)OCC)C1c1ccccc1Br (centres unmarked) [Compound 8]
[1]
  Pharmacological data ED50: 0.033 μg/heart
  coronary vascular dilative effects (in words): extremely strong coronary vascular dilative effects
Vertebral artery; [3]
  response vs control in vivo at 0.001 mg/kg: 110%
Vertebral artery; [4]
  response vs control in vivo at 0.001 mg/kg: 89%
Vertebral artery; [5]
  response vs control in vivo at 0.003 mg/kg: 117%
  response vs control in vivo at 0.01 mg/kg: 140%
  response vs control in vivo at 0.03 mg/kg: 182%
Vertebral artery; [6]
  response vs control in vivo at 0.003 mg/kg: 81%
  response vs control in vivo at 0.01 mg/kg: 64%
  response vs control in vivo at 0.03 mg/kg: 48%
Vertebral artery; [7]
  response vs control in vivo at 0.1 mg/kg: 211%
Vertebral artery; [8]
  response vs control in vivo at 0.1 mg/kg: 40%
Systemic blood pressure; [9]
  response vs control in vivo at 0.001 mg/kg: 93%
Systemic blood pressure; [10]
  response vs control in vivo at 0.003 mg/kg: 87%
  response vs control in vivo at 0.01 mg/kg: 81%
  response vs control in vivo at 0.03 mg/kg: 83%
Systemic blood pressure; [11]
  response vs control in vivo at 0.1 mg/kg: 79%

## CCOC(=O)N1C(C)=NC(Cl)=C(C(=O)OC)C1c1ccccc1[N+](=O)[O-] (centres unmarked) [Compound 9]
[1]
  Pharmacological data ED50: 0.78 μg/heart

## COC(=O)C1=C(Cl)N=C(C)N(C(=O)OC)C1c1ccccc1[N+](=O)[O-] (centres unmarked) [Compound 11]
[1]
  Pharmacological data ED50: 1.65 μg/heart

## CCOC(=O)N1C(C)=NC(C)=C(C(=O)OC)C1c1cccc([N+](=O)[O-])c1 (centres unmarked) [Compound 14]
[1]
  Pharmacological data ED50: 1.1 μg/heart

## COC(=O)C1=C(Cl)N=C(C)N(C(=O)OC)C1c1cccc([N+](=O)[O-])c1 (centres unmarked) [Compound 15]
[1]
  Pharmacological data ED50: 2.8 μg/heart

## CCOC(=O)N1C(C)=NC(Cl)=C(C(=O)OC)C1c1cccc([N+](=O)[O-])c1 (centres unmarked) [Compound 16]
[1]
  Pharmacological data ED50: 10.0 μg/heart

## CCOC(=O)C1=C(Cl)N=C(C)N(C(=O)OCC)C1c1ccc(SC)cc1 (centres unmarked) [Compound 18]
[1]
  Pharmacological data ED50: 0.37 μg/heart

## CCOC(=O)C1=C(C)N=C(C)N(C(=O)OCC)C1c1ccc(SC)cc1 (centres unmarked) [Compound 19]
[1]
  Pharmacological data ED50: 0.58 μg/heart

## CCOC(=O)C1=C(Cl)N=C(C)N(C(=O)OC)C1c1ccc(SC)cc1 (centres unmarked) [Compound 20]
[1]
  Pharmacological data ED50: 0.22 μg/heart

## CCOC(=O)C1=C(C)N=C(C)N(C(=O)OC)C1c1ccc(SC)cc1 (centres unmarked) [Compound 21]
[1]
  Pharmacological data ED50: 1.0 μg/heart

## COC(=O)C1=C(C)NC(C)=C(C(=O)OCCN(C)Cc2ccccc2)C1c1cccc([N+](=O)[O-])c1 (centres unmarked) [Nicardipine, reference compound]
Vertebral artery; [3]
  response vs control in vivo at 0.001 mg/kg: 123 ± 7%
Vertebral artery; [4]
  response vs control in vivo at 0.001 mg/kg: 79 ± 4%
Vertebral artery; [5]
  response vs control in vivo at 0.003 mg/kg: 147 ± 15%
  response vs control in vivo at 0.01 mg/kg: 183 ± 13%
Vertebral artery; [6]
  response vs control in vivo at 0.003 mg/kg: 67 ± 7%
  response vs control in vivo at 0.01 mg/kg: 49 ± 3%
Systemic blood pressure; [9]
  response vs control in vivo at 0.001 mg/kg: 90 ± 1%
Systemic blood pressure; [10]
  response vs control in vivo at 0.003 mg/kg: 87 ± 2%
  response vs control in vivo at 0.01 mg/kg: 80 ± 2%

## COC(=O)C1=C(C)NC(C)=C(C(=O)OC)C1c1ccccc1[N+](=O)[O-] [Nifedipine, reference compound]
Vertebral artery; [12]
  response vs control in vivo at 0.0001 mg/kg: 114%
  response vs control in vivo at 0.0003 mg/kg: 129%
  response vs control in vivo at 0.001 mg/kg: 154%
Vertebral artery; 0.0001 mg/kg, % of value before administration, read-out: Vertebral artery vessel resistance, percentage compared with control
  response vs control in vivo at 0.0001 mg/kg: 79%
Vertebral artery; [2]
  response vs control in vivo at 0.0003 mg/kg: 67%
Vertebral artery; [4]
  response vs control in vivo at 0.001 mg/kg: 57%
Systemic blood pressure
  response vs control in vivo at 0.0001 mg/kg: 94%
  response vs control in vivo at 0.0003 mg/kg: 94%
  response vs control in vivo at 0.001 mg/kg: 87%

## COc1ccc(Cc2nccc3cc(OC)c(OC)cc23)cc1OC [Papaverine, reference compound]
Vertebral artery; [12]
  response vs control in vivo at 0.1 mg/kg: 123 ± 4%
  response vs control in vivo at 0.3 mg/kg: 151 ± 8%
  response vs control in vivo at 1 mg/kg: 184 ± 14%
Vertebral artery; [13]
  response vs control in vivo at 0.1 mg/kg: 78 ± 3%
  response vs control in vivo at 0.3 mg/kg: 58 ± 3%
  response vs control in vivo at 1 mg/kg: 43 ± 3%
Systemic blood pressure
  response vs control in vivo at 0.1 mg/kg: 93 ± 1%
  response vs control in vivo at 0.3 mg/kg: 83 ± 3%
  response vs control in vivo at 1 mg/kg: 73 ± 4%
